Experimental data: patent US8895756B2, “Bendamustine pharmaceutical compositions” (priority 2005, dated 2014)
Like-named read-outs stand apart in the source and are kept apart here.

What was measured:
[1] = for Bendamustine solubility: 5° C.
Description: (§1) Samples were then refrigerated at 5° C. and inspected after 0, 3, 6 and 24 hours for particulates and/or precipitates.

[2] = reconstituted with 40 mL Sterile Water for Injection, cited from earlier work
[3] = Fisher esterification conditions: formation of t-butyl ester of bendamustine in TBA; assay type: physicochemical; conditions: heated in 60° C. TBA with HCl for 20 hours
Description: Experiments were performed using traditional Fisher esterification reaction conditions required for the formation of t-butyl ester of bendamustine. Bendamustine was heated in 60° C. TBA with HCl for 20 hours.

[4] = physchem; conditions: 5 °C
Description: as §1

[5] = HPLC stability of bendamustine in TBA 20% (v/v) with and without mannitol over 24 hours; assay type: physicochemical
Source text: FIGS. 3 and 4 show the amount of degradation of bendamustine as measured by HP1 and dimer formation quantified by HPLC (as described herein). HP1 and dimer formation increased as the amount of alcohol concentration decreased regardless of the alcohol. This increase in impurities occurred with an anticipated time dependence (see Tables 3-9).

[6] = 10% (v/v) methanol in water with 25.5 mg/mL mannitol, aqueous with cosolvent or surfactant or cyclodextrin
[7] = alcohol/water solution with mannitol 25.5 mg/mL, aqueous with cosolvent or surfactant or cyclodextrin
[8] = alcohol/water solution with mannitol 25.5 mg/mL, aqueous with cosolvent or surfactant or cyclodextrin, thermodynamic from solid
[9] = alcohol/water solution with mannitol, aqueous with cosolvent or surfactant or cyclodextrin
[10] = alcohol/water solution with mannitol, aqueous with cosolvent or surfactant or cyclodextrin, thermodynamic from solid
[11] = alcohol/water solution with mannitol, water, thermodynamic from solid
[12] = water with mannitol 25.5 mg/mL, water, thermodynamic from solid

Cl.Cn1c(CCCC(=O)O)nc2cc(N(CCCl)CCCl)ccc21 [bendamustine, 4-{5-[Bis(2-chloroethyl)amino]-1-methyl-2-benzimidazolyl}butyric acid]
saturation limit (20% (v/v) TBA, 5° C.): 17.2 mg/mL | concentration of saturated solution (30% TBA/water, 0° C.): 18000 µg/mL | Bendamustine solubility ([1]; 0% (Water Only), 6 Hours): Precipitate | Bendamustine solubility ([1]; 0% (Water Only), 24 Hours): Precipitate | precipitation ([1]; 15 mg/mL bendamustine, 5% and 10% ethanol and TBA without mannitol, over 24 hours): did not precipitate | Bendamustine solubility ([1]; 1.9% Ethanol (v/v), 6 Hours): Precipitate | Bendamustine solubility ([1]; 1.9% Ethanol (v/v), 24 Hours): Precipitate | Bendamustine solubility ([1]; 5% Ethanol (v/v), 6 Hours): Precipitate | Bendamustine solubility ([1]; 5% Ethanol (v/v), 24 Hours): Precipitate | Bendamustine solubility ([1]; 5% Iso-propanol (v/v), 3 Hours): Precipitate | Bendamustine solubility ([1]; 5% Iso-propanol (v/v), 6 Hours): Precipitate | Bendamustine solubility ([1]; 5% Iso-propanol (v/v), 24 Hours): Precipitate | Bendamustine solubility ([1]; 5% Methanol (v/v), 6 Hours): Precipitate | Bendamustine solubility ([1]; 5% Methanol (v/v), 24 Hours): Precipitate | Bendamustine solubility ([1]; 5% Tert-Butanol (v/v), 24 Hours): Precipitate | Bendamustine solubility ([1]; 5% n-Propanol (v/v), 24 Hours): Precipitate | Bendamustine solubility ([1]; 10% Ethanol (v/v), 24 Hours): Precipitate | Bendamustine solubility ([1]; 10% Methanol (v/v), 24 Hours): Precipitate | Bendamustine solubility ([1]; 10% Tert-Butanol (v/v), 24 Hours): Precipitate | Bendamustine solubility ([1]; 20% Methanol (v/v), 24 Hours): Precipitate | Bendamustine solubility ([1]; 20% n-Butanol (v/v), 3 Hours): 2 layers | Bendamustine solubility ([1]; 20% n-Butanol (v/v), 6 Hours): 2 layers | Bendamustine solubility ([1]; 20% n-Butanol (v/v), 24 Hours): 2 layers | Bendamustine solubility ([1]; 20% n-Butanol (v/v), Zero Time): 2 layers | Bendamustine solubility ([1]; 30% n-Butanol (v/v), 3 Hours): 2 layers | Bendamustine solubility ([1]; 30% n-Butanol (v/v), 6 Hours): 2 layers | Bendamustine solubility ([1]; 30% n-Butanol (v/v), 24 Hours): 2 layers | Bendamustine solubility ([1]; 30% n-Butanol (v/v), Zero Time): 2 layers | stable period after reconstitution ([2]; room temperature storage): 7 h | stable period after reconstitution ([2]; storage at 2-8° C.): 140 h | formation of t-butyl ester [3]: No reaction was observed | solubility at 0 h [4, 6]: > 15 mg/mL | solubility at 3 h [4, 6]: > 15 mg/mL | solubility at 6 h [4, 6]: > 15 mg/mL | solubility at 0 h [4, 7]: > 15 mg/mL | solubility at 3 h [4, 7]: > 15 mg/mL | solubility at 6 h [4, 7]: > 15 mg/mL | solubility at 24 h [4, 7]: > 15 mg/mL | solubility at 0 h [4, 8]: > 15 mg/mL | solubility at 3 h [4, 8]: > 15 mg/mL | solubility at 6 h [4, 8]: > 15 mg/mL | solubility at 24 h [4, 8]: > 15 mg/mL | solubility at 0 h [4, 9]: > 15 mg/mL | solubility at 3 h [4, 9]: > 15 mg/mL | solubility at 6 h [4, 9]: > 15 mg/mL | solubility at 24 h [4, 9]: > 15 mg/mL | solubility at 0 h [4, 10]: > 15 mg/mL | solubility at 3 h [4, 10]: > 15 mg/mL | solubility at 6 h [4, 10]: > 15 mg/mL | solubility at 24 h [4, 10]: > 15 mg/mL | solubility at 0 h [4, 11]: > 15 mg/mL | solubility at 3 h [4, 11]: > 15 mg/mL | solubility at 0 h [4, 12]: > 15 mg/mL | solubility at 3 h [4, 12]: > 15 mg/mL | Purity (% Area) ([5]; TBA 20% (v/v) with Mannitol, 0 hours, reverse phase HPLC): 99.59 % Area | Purity (% Area) ([5]; TBA 20% (v/v) with Mannitol, 24 hours @ 5° C., reverse phase HPLC): 99.35 % Area | Purity (% Area) ([5]; TBA 20% (v/v) without Mannitol, 0 hours, normal phase HPLC): 100.0 % Area | Purity (% Area) ([5]; TBA 20% (v/v) without Mannitol, 24 hours @ 5° C., normal phase HPLC): 98.80 % Area
